One substance from US20250302999A1, “TRANSGENE CASSETTES AND EPIGENETIC SILENCERS FOR THE TREATMENT OF DISORDERS” (Ospedale San Raffaele S.r.I., priority 2022, published 2025) can be followed below.

This test has as its system SNB19 cells. The experiment in a line: Wound healing assay. In kind it is cell-based, human. Particulars: 48 hrs after scratching; scratch 2 days after start of treatment. Here is the method:
The wound healing assay was carried out according to Zhang et al. (2018) J Mol Neurosci 64:262-272. At the designated time, five randomly selected fields at the lesion border were acquired under an inverted microscope (Olympus, IX71). The mean number of cells at the control group was defined as 100% and the mean number of other groups was normalised by means of the control group, respectively.

With verteporfin, the “wound healing (cell migration)” value is “healed more slowly”.
